Where two headings read alike, the source gives them in different places.

From US12291504B2 (University of Pittsburgh—Of the Commonwealth System of …, priority 2018, dated 2025) come the findings set out here.

Assay [1] has as its target T1, SULT1A3 (Homo sapiens, UniProt P0DMM9). Put plainly: Dopamine sulfonation by SULT1A3-expressing HME cells. Type of assay: cell-based. The following applies: dopamine 100 μM, 24 hours, best-fit titration curve, read-out: EC50, inhibition of dopamine sulfonation. The method, then: Cells were incubated with 100 μM dopamine and incubation media was sampled for dopamine and dopamine sulfate at the indicated time intervals. The dopamine and dopamine sulfate levels in the SULT1A3 (+) strain are shown as red and blue dots, respectively. Only dopamine (green dots) was detected using the SULT1A3 (−) strain.
HME cells were incubated with dopamine (100 μM) and Compound 12 (at the indicated concentrations) for 24 hours at which time the dopamine (red dots) and dopamine sulfate (blue dots) levels were determined. […] The chromatography was performed using a PFP-HPLC column. […] Further, the data in Table A reveal that Compound 12 is highly specific for the SULT1A3 isoform.
HME cells expressing SULT1A3 were incubated for 24 hours with dopamine (100 μM) and Compound 23 (at the indicated concentrations) at which time the dopamine (red dots) and dopamine sulfate (blue dots) concentrations were determined using the methods associated with FIG. 10B.

Assay [2] deals with Mouse (1D1) (Mus musculus, UniProt Q3UZZ6). The assay is described as follows: Inhibition of SULT1A3 homologues in different species: Mouse. Type of assay: biochemical. The method, then: (§1) Compounds 12, 23 and 25 were also tested for Inhibition of SULT1A3 in different species.
(§2) Inhibition of SULT1A3 Homologues in Different Species. SULT1A3 is only expressed in humans and higher primates. SULT1D1 is the isoform expressed in dogs and rodents that sulfonates neurotransmitters and is most similar to SULT1A3. Three synthesized allosteres (12, 23, and 25) were tested against both 1A3 and 1D1 from different species in order to explore testing in animal models. […] Mice have been engineered such that their SULT1A1/2 enzymes have been knocked out and replaced with the human versions of those isoforms.

Assay [3] has as its target T2, Rat (1D1) (Rattus norvegicus, UniProt G3V9R3).
T2 sequence (G3V9R3 1-295): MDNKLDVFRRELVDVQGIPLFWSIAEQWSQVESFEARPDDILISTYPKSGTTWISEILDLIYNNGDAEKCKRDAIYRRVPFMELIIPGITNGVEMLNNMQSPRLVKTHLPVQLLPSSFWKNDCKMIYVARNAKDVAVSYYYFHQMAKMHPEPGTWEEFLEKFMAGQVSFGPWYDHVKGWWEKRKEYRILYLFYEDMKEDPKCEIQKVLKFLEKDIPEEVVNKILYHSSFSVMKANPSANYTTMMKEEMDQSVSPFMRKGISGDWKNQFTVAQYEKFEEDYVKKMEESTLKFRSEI
Put plainly: Inhibition of SULT1A3 homologues in different species: Rat. Type of assay: biochemical. How it is done: as §1, §2

Assay [4] concerns the target T1, SULT1A3. Put plainly: SULT1A3 inhibition studies, 1-HP initial-rate fluorescence assay. Format: biochemical. Further details: Wild-type and mutant SULT1A3 coding regions were inserted into a pGEX-6P expression vector; N-His/GST/MBP triple-tag (N, cleaved yes); made in house; host or cells: E. coli BL21(DE3); inhibition: dose or concentration left out as unconfirmed. The following applies: for inhibition: read-out: SULT1A3 Enzyme Inhibition at Saturation/%. A digest of the protocol: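 SULT1A3 (20 nM active sites) with PAPS 0.50 mM (17×Km) and 1-HP 5.0 μM (~61×Km) in 50 mM KPO4, pH 7.5, 25±2° C; inhibitor varied 0.20-20×Ki. Initial rates from 1-HP fluorescence (λex 325, λem 370 nm), triplicate; Ki by least-squares fit to a partial-inhibition equation.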

Assay [5] concerns other major SULT isoforms found in liver and brain. Put plainly: Inhibition of SULT isoforms by CMP8 (FIG. 1). Type of assay: biochemical. The following applies: at concentrations as high as 2 mM. How it is done:
The initial rates of SULT catalyzed 1-HP sulfonation are plotted as a function of inhibitor concentration, and are normalized relative to [inhibitor]=0. Enzyme activity was monitored by the sulfonation dependent change in 1-HP fluorescence (λex=325 nm, λem=370 nm). Less than 5% of the concentration-limiting substrate converted at the reaction endpoint was consumed during initial-rate measurements. Each point is the average of three independent determinations. Conditions: SULT (20 nM, active sites), PAPS (0.50 mM, 17×Km), 1-HP (5.0 μM, 61×Km), KPO4 (50 mM), pH 7.5, 25±2° C.
Such inhibitors alleviate inhibition when used competitively against total inhibitors that bind at the same site. […] Given these favorable characteristics, it was reasoned that the CMP8-binding site offered a new target that could be used to control 1A3 activity. Consequently, the solution structure of the CMP8-binding site was determined using spin-label-triangulation NMR. As used herein, the “CMP8-binding site” refers to the SULT1A3 allosteric site defined herein, which is different from the catechin- and NSAID-binding sites.

Setting [6] is: ND = inhibition was not detected at 30 μM compound, parentheses one standard error, read-out: SULT1A3 Ki/μM.

T1 sequence (P0DMM9 whole entry): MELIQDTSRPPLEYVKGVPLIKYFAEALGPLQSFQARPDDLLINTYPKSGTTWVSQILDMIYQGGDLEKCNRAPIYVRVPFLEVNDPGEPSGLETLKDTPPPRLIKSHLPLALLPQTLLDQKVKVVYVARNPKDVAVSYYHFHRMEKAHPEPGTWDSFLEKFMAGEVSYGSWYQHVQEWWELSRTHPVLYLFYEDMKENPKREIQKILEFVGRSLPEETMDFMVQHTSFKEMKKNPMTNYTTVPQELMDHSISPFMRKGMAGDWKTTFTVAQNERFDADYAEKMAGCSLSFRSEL
Chain of Mouse (1D1) (Q3UZZ6 whole entry, canonical isoform): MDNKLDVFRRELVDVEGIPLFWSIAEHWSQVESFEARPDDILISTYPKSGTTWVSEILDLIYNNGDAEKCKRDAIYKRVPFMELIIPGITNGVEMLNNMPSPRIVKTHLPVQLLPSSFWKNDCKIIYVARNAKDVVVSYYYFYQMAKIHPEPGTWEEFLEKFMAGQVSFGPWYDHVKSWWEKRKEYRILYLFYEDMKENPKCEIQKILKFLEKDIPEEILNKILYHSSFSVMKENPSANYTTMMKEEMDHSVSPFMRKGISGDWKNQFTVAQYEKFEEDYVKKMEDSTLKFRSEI

Broadly, the EC50 is the concentration at which the effect is half-maximal. With `CC(C)Cc1ccc2cc(CCC(N)=O)ccc2n1` [Compound 12], the EC50 in assay [1] came to 0.25 ± 0.087 µM. Besides, the “Mouse (1D1) % inh” value in assay [2] is reported as 82 (2) %. In addition, the Ki came to 0.079 µM in assay [2] (parentheses one standard error); 2.5 µM in assay [3] (parentheses one standard error); 0.069 µM in assay [4] (setting [6]); 0.05 µM in assay [4] (standard error in neighbouring cell, read-out: Human (1A3) Ki). Further, in assay [3], the “Rat (1D1) % inh” value was 33 (4) %. For the same molecule, in assay [4], the “affinity for SULT1A3 (in words)” value is listed as “low micromolar affinity”. For the same molecule, the inhibition in assay [4] (parentheses one standard error) is 83%. In assay [4] (text b218), this molecule had an inhibition at saturation of 83%.
With `CC(C)Cc1ccc2cc(CO)ccc2n1` [Compound 8, (2-Isobutylquinolin-6-yl)methanol], in assay [5], the “inhibition of other major SULT isoforms” value was “does not detectably inhibit”. Also, the Ki amounted to 0.034 µM in assay [4] (FIG. 1, read-out: Ki of CMP8 for SULT1A3); 0.034 µM in assay [4] (setting [6]); 0.034 µM in assay [4] (WT enzyme, parentheses one standard deviation, read-out: Ki CMP8). Also, in assay [4] (competition against near-total inhibitors of the catechin and NSAID sites), the “alleviation of inhibition by epigallochatechin gallate or mefenamic acid” value is listed as “did not alleviate inhibition”. In addition, the inhibition in assay [4] (parentheses one standard error) came to 54%. Besides, the “SULT1A3 turnover at saturation relative to absence of inhibitor” value in assay [4] (partial inhibitor, at saturation) is 46%. For the same molecule, in assay [4] (saturating CMP8), the “kcat (+CMP8)/kcat (−CMP8)” value is on record as 0.46±0.08.
